Results reported in patent US20060257875A1, “Affinity screening using "one-bead-one-compound" libraries” (Carlsberg A/S, priority 2003, published 2006).
Several values for one entry are separate records, joined by “and”; a condition that tells them apart may be missing. Identical values can stand only once. Entries after “also recorded” stand apart in the source; their conditions may differ. Starred links: 1 amine or outer side, 2 acyl side, 3 side chain; linkers in the order of their positions; H or OH if unused. Non-standard residues stand in square brackets, D forms with d. Primed or numbered codes have the meaning given here. No end group written: not given here. Gua = 4-S-(Di-Boc-guanidino)-L-proline, CC(C)(C)OC(=O)N=C(NC(=O)OC(C)(C)C)N[C@H]1C[C@@H](C(=O)[*:2])N([*:1])C1; Pip′ = 4-phenyl-piperidine-4-carboxylic acid, O=C(C1(c2ccccc2)CCN([*:1])CC1)[*:2]; Abi = 3-amino-3-(biphenyl)-propanoic acid; Hyp = O=C(O)[C@@H]1C[C@@H](O)CN1; 3Pal = N[C@@H](Cc1cccnc1)C(=O)O; Acm′ = not defined here; ManN = not defined here; ManS = not defined here

Experiments:
[1] = tested on: six protein mixture: Con A, P. sativum lectin, L. culinaris lectin, W. floribunda lectin, Glyceraldehyde 6-phosphate, bovine serum albumin; test: Solid phase screening of Library 3 with labeled six protein mixture; affinity purification, gel electrophoresis and Edman degradation; type: binding; conditions: six protein mixture; for Identified Protein(s): Library 3 ligand on PEGA6000 resin
[2] = tested on: normal (basal) myocyte protein mixtures; test: Solid phase screening of Library 1 with labeled myocyte proteins; bound proteins identified by on-bead digest and peptide mass fingerprinting; type: binding, neonatal Wistar rats; conditions: Library 1 ligand on PEGA4000 bead; Normal Myocytes; proteins primarily present in basal cells
Experimental: (§1) Myocytes were prepared from 1 to 5 day old neonatal Wistar rats (University of Copenhagen) according to literature procedure described in Busk et al., 2002, Cardiovasc. Res., 56: 64-75 and plated into eight P10 culture plates at 6 million cells/plate.
(§2) Protein was extracted from myocytes prepared as described above for Example 9, using a new procedure modified from existing protocols, primarily: Arrott, et al., 1998, Anal Biochem. 258: 1-18. The media was removed from plates and adhered cells were treated for 10 minutes with ice cold phosphate buffer (0.25 mL, 10 mM, pH 7.5, augmented with 0.15 M NaCl 60 mM Benzamidine HCl, 5 mM EDTA, 10 μg/n E-64, 10 μg/mL Leu-peptin, 10 μg/mL Pepstatin A, and 1 mM PMSF). The cells were scraped off the plates and then lysed (on ice) in a sonicator (2×) using 10 seconds off/10 seconds on cycles.
(§3) The resulting suspension was augmented with CHAPS, DTT, and urea to a final concentration of CHAPS (1% w/v), DTT (5 mM), and urea (8 M). After 10-15 minutes on ice, the solution was centrifuged for 10 minutes at 15,000 rpm at 4° C. The supernatant was removed and protein content quantified using the NanoOrange Protein test (Molecular Probes, Eugene, Oreg.): Total protein recovered: 70.5 μg for PE-treated cells and 60 μg for basal cells.
(§4) Fluorescent dye Oregon Green 514 (OR) (Molecular Probes) was used to label the healthy/basal cells while Rhodamine Red (RR) (Molecular Probes) was used to label the PE-treated cells. The labeling procedures were carried out according to the manufacturer's protocol. The protein solutions (0.25 mL, 50.4 μg for PE cells and 0.25 mL, 42.8 μg for basal cells) were dialyzed against a solution of 10 mM phosphate buffer, 0.15 M NaCl, pH 7.5 and then 1 M NaHCO3 (0.025 mL) added to a final pH of 8.5. 10 μL of dye in dry DMF (10 mg/mL) was added and the sample stirred at room temperature for 2 hours. The protein solution was dialyzed extensively against 10 mM phosphate buffer, 0.15 M NaCl, pH 7.5, to remove excess dye.
(§5) Ligand library 1 (200 mg), prepared as described for Example 5, was transferred to a syringe fitted with a stop-valve and the ligand-beads were washed for 10 minutes (3×) with 10 mM phosphate buffer, pH 6.8, supplemented with 0.15 M NaCl, 1 mM Ca^2+, 1 mM Zn^2+, 1 mM Mn^2+, 1 mM Cu^2+, and 1 mM Mg^2+ (3 mL). The ligand-beads were treated with a 1% BSA solution for 30 minutes, then washed with buffer (1×). A mixture of labeled myocyte proteins, including both PE-induced protein (138 μL, 40 μg) and basal protein (167 μL, 40 μg) obtained as described above for Example 11, was prepared in 1.2 mL buffer, and added to the ligand library in the syringe. The proteins and ligand library were incubated at room temperature for 16 hours. The library was then washed with buffer for 5 minutes then with water for 3×5 minutes. The library was examined under a fluorescence microscope and brightly fluorescent red, green, and yellow beads (yellow indicative of both dyes red and green binding; the majority of the beads) were present, as well as unlabelled beads. The fluorescent beads were separated and retained for analysis.
(§6) The fluorescent ligand library beads containing bound protein obtained as described in Example 15 were sorted using a COPAS (250) NF Bead Sorter (Union Biometrica, Somerville, Mass.) equipped with a single flourescence emission. Beads emitting fluorescence of only one color contain proteins from one physical state, e.g. proteins expressed only in the PE-induced hypertrophic state (red) or proteins expressed only in the basal state (green). Since the instrument measures one fluorescence emission at a time, beads containing one type of color fluorescence were first sorted and then beads were resorted for emissions from the other fluorescence color. The library was first sorted such that all beads containing significant green fluorescence, basal proteins from healthy myocytes, were isolated. […]

[3] = tested on: phenylephrine (PE)-treated myocyte proteins; test: as above; type: binding, neonatal Wistar rats; conditions: Library 1 ligand on PEGA4000 bead; Phenylephrine Treated (Hyperthrophic) Myocytes
Experimental: as §1, §2, §3, §4, §5, §6

| Substance | Identified Protein(s) [2] | other results |
| --- | --- | --- |
| GlcNN-Val-GlcNN-His-ManS-Gly |  | Identified Protein(s) [1]: Con A, P. sativum; also recorded: lectin |
| HTWGYW |  | Identified Protein(s) [1]: Con A; selectivity of binding among the lectins [1]: binds selectively to Con A |
| His-Tyr-Pip-Thr-Acm-Abi (HY[Pip′]T[Acm′][Abi]; reading uncertain; also: printed as His-Tyr-Pip-Thr-Acm-Abi) | Chain C P27 cyclin A-CDK2 complex: (Cyclin A?) (gi and 2392395); Hypothetical protein XP_154035. |  |
| Lys-Met-Hyp-Trp-Tyr-Gun (KM[Hyp]WY[Gua]) |  | Identified Protein(s) [3]: Cell surface glycoprotein (gi 23603627); Hypothetical; also recorded: protein (XP-179829; gi 14720727) |
| ManN-Phe-Trp-Ser-Lys-His ([ManN]FWSKH; reading uncertain; also: printed as ManN-Phe-Trp-Ser-Lys-His) |  | Identified Protein(s) [1]: Con A, P. sativum; also recorded: lectin |
| ManS-Gly-ManS-Asp-Asn-Ala ([ManS]G[ManS]DNA; reading uncertain; also: printed as ManS-Gly-ManS-Asp-Asn-Ala) |  | Identified Protein(s) [1]: Con A, P. sativum; also recorded: lectin |
| Pal-Gly-Abi-Hyp-Pya-Trp |  | Identified Protein(s) [3]: NAS putative unclassified (gi 12861084); Putative Zn; also recorded: finger protein 64 (gi 12849329) |
| Phe-Gua-Asp-Abi-His-Aze | Hypothetical protein XP_043250 (gi 14773490) |  |
| Phe-Phe-Phe-Pip-Aze-Gua | Phosphatidyl choline-sterol acyl transferase (400167;; also recorded: LCAT-PIG_9) |  |
| Phe-Ppy-Acc-Ala-Ppy-Hpy | Hypothetical proteins; Troponin T gi 547047;; (Phospho-; also recorded: lipase C (MA); Phosphatidyicholine sterol acyl trans-; also recorded: ferase (400167;LCAT-PIG_9)) |  |
| Phe-Thr-Pya-Pip-Asp-His (FT[3Pal][Pip′]DH) | (Sodium channel (gi 18591322) (M); Chloride channel (gi and 6978663/4502867) (M)) Troponin I (gi 1351298);; Zn Fin- and ger protein (gi 18591322) (MA); SPTR (peroxisomal Ca and dependent solute carrier (putative) (gi 12853685); and Beta-2 adnergic receptor (gi 12699028) |  |
| Pip-Pal-Pal-Phe-Pya-Pip | 544086) (M); Ribosomal proteins (60s) (gi 21426891); and SPTR (gi 20837095) (M) and Ca2+/Calmodulin activated Myosin light chain kinase (gi and 284660) (LA, MA); Regulator of G-Protein Signalling and (RGS14) variant (gi 2708808) ATP Synthase component and (subunit e) (gi 258788) (M);; Cytochrome P450 (gi |  |
| Pya-Gua-Pip-Acc-Phe-Pip | NADH dehydrogenase; ATP binding component (gi 18598538); also recorded: (M); Myosin heavy polypeptide 9 (gi 13543854); Histone; also recorded: associated proteins (gi 20893760) (M) |  |
| Pya-Hyp-Hyp-Phe-Acm-Tyr | Troponin T (gi 547047); Ca2+/Calmodulin activated My-; also recorded: osin light chain kinase (gi 284660) (LA, MA); cGMP-; also recorded: dependent protein kinase (gi 284660) (LA) |  |
